Patent EP0429522B1, “PHOSPHOSUGAR-BASED ANTI-INFLAMMATORY AND/OR IMMUNOSUPPRESSIVE DRUGS” (THE AUSTRALIAN NATIONAL UNIVERSITY, priority 1988, dated 1990)

Legend:
[1] = test system: Delayed-Type Hypersensitivity (DTH); test: Delayed-type hypersensitivity (DTH) footpad swelling after sheep red blood cell challenge; assay type: in vivo, C57Bl mice; details: 24 hours after challenge; 0.15mg i/p per injection, 7 injections at approx. 3½ hour intervals
Description: C57Bl mice were sensitised by i.v. injection 10⁵ of washed sheep red blood cells. 5 days later they were challenged in the right hind footpad with SRBC. Each mouse was given a 0.25ml injection i/p at the same time of either saline, mannose-6-phosphate or the 1,2,3,4-tetraacetate of mannose-6-phosphate and all injections were repeated a further 6 times at approx. 3½ hour intervals. The dose in each injection of mannose-6- phosphate was 0.15mg and of 1,2,3,4-tetra-O-acetyl derivative of mannose-6-phosphate was also 0.15mg. At 24 hours after challenge the DTH swelling was measured.

[2] = test system: Adoptively Transferred EAE; test: Inhibition of adoptively transferred EAE (clinical signs), phosphosugar delivered by subcutaneous mini-osmotic pumps; assay type: in vivo, Lewis rats; details: for Disease Severity (%Control): product of mean clinical score and mean length disease; for inhibition of EAE (result in words): summary of Tables I, III and IV
Description: In this Example, a number of phosphosugars and one phospho-polysaccharide were tested for their ability to inhibit development of EAE in rats. (All phosphosugars tested are commercially available and were obtained from Sigma Chemical Co., St. Louis, MO, U.S.A.). Experimental details are included in the footnotes to the Tables setting out the test results.
Thus, although 7/10 animals treated with mannose-6-phosphate developed some clinical signs of disease (Table III) the severity of these disease symptoms was extremely mild compared with untreated animals, i.e., <10% disease severity of controls when clinical scores and duration of disease are examined. In this sense, the mannose-6-phosphate data in Tables I and III are almost identical. […]
In these experiments, details of which were as in Table I, the number of cells transferred was 25x10⁶/rat, while the dose of compound administered was 10mg/rat delivered over a 7 day period by mini-osmotic pumps, commencing on day 3 after cell transfer.

[3] = test system: Passive Adjuvant Arthritis; test: Suppression of passive adjuvant arthritis (foot size); assay type: in vivo, (DA x Lew)Fl rats; details: 6mg/rat/day by miniosmotic pumps for 14 days
Description: (DA x Lew)Fl rats were immunized with M.butyricum in light mineral oil given in each foot. Ten days later spleens were removed and incubated as single cell suspension tissue culture medium in + 5µg/ml ConA for 75 hrs. Cells were harvested, washed and transferred i.v. at 65 x 10⁶ cells/rat into (DA x Lew)F recipients.
Treated rats were implanted on the day they received cells with miniosmotic pumps which delivered 6mg/rat/day of mannose-6- phosphate for 14 days. Control rats were sham operated. The results are shown in Table VII as % of pre-cell injection foot size. {Average for group; n=4 (mannose-6-phosphate); n=6 (control)}.

[4] = test system: EAE; test: Histological analysis of spinal cord inflammatory lesions in EAE rats; assay type: in vivo; details: for No.Lesions: lower thoracic-upper lumbar spinal cord sections, treated as in Table I; for No.Lesions / Lesions/section: 9 days after cell transfer; for Lesions/section: spinal cord sections
Text: Such data are consistent with the view that the sugars are inhibiting entry of leukocytes into the CNS.

[5] = Table III, experimental details as in Table I
[6] = Table II, dose 10 mg over 7 days
[7] = Table II, dose 20 mg over 7 days
[8] = Table II, dose 40 mg over 7 days

1,2,3,4-tetra-O-acetyl derivative of mannose-6-phosphate
reduction of DTH swelling as compared with the saline controls [1]: 91.5%

6-phospho-mannose-α(1-3)-{mannose-α-(1-3)}₂-mannose-α-(1-2)-mannose [Pentasaccharide]
EAE/Total ([2]; Table VI, 25x10⁶ cells/rat, 10mg/rat over 7 days by mini-osmotic pumps from day 3): 1/5

OC[C@H]1OC(O)[C@@H](O)[C@@H](O)[C@@H]1O (stereo partly drawn) [D-mannose, reference compound]
Mean Clinical Score [2, 5]: 2.9 | Mean Day Onset [2, 5]: 5.2 | Mean Length Disease [2, 5]: 4.4 days | No.with EAE/Total [2, 5]: 5/5 | Disease Severity (%Control) ([2]; Table III): 84.5% | inhibition of EAE (result in words) [2]: little or no effect on disease progression

O=C(COP(=O)(O)O)[C@@H](O)[C@H](O)[C@H](O)COP(=O)(O)O [Fructose-1,6-diphosphate, fructose-1,6-diphosphate]
Mean Clinical Score [2, 5]: 2.4 | Mean Day Onset [2, 5]: 5.4 | Mean Length Disease [2, 5]: 3.4 days | No.with EAE/Total [2, 5]: 5/5 | Disease Severity (%Control) ([2]; Table III): 54.0% | inhibition of EAE (result in words) [2]: partially inhibitory

O=C(COP(=O)(O)O)[C@@H](O)[C@H](O)[C@H](O)CO [Fructose-1-phosphate, fructose-1-phosphate]
Mean Clinical Score [2, 5]: 1.2 | Mean Day Onset [2, 5]: 5.5 | Mean Length Disease [2, 5]: 1.6 days | No.with EAE/Total [2, 5]: 3/5 | Disease Severity (%Control) ([2]; Table III): 12.6% | inhibition of EAE (result in words) [2]: as effective as mannose-6-phosphate at inhibiting disease

O=C(CO)[C@@H](O)[C@H](O)[C@H](O)COP(=O)(O)O [Fructose-6-phosphate]
Mean Clinical Score [2, 5]: 1.6 | Mean Day Onset [2, 5]: 6.0 | Mean Length Disease [2, 5]: 2.4 days | No.with EAE/Total [2, 5]: 4/5 | Disease Severity (%Control) ([2]; Table III): 25.4% | inhibition of EAE (result in words) [2]: comparatively effective inhibitor of EAE

O=P(O)(O)OC[C@H]1OC(O)[C@H](O)[C@@H](O)[C@H]1O (some centres unmarked) [Galactose-6-phosphate, galactose-6-phosphate]
Mean Clinical Score [2, 5]: 2.0 | Mean Day Onset [2, 5]: 5.2 | Mean Length Disease [2, 5]: 3.0 days | No.with EAE/Total [2, 5]: 5/5 | Disease Severity (%Control) ([2]; Table III): 40.5% | inhibition of EAE (result in words) [2]: partially inhibitory

O=P(O)(O)OC[C@H]1OC(O)[C@H](O)[C@@H](O)[C@@H]1O (some centres unmarked) [Glucose-6-phosphate, glucose-6-phosphate]
Mean Clinical Score [2, 5]: 2.0 | Mean Day Onset [2, 5]: 5.4 | Mean Length Disease [2, 5]: 3.8 days | No.with EAE/Total [2, 5]: 5/5 | Disease Severity (%Control) ([2]; Table III): 50.3% | inhibition of EAE (result in words) [2]: partially inhibitory

O=P(O)(O)OC[C@H]1OC(O)[C@@H](O)[C@@H](O)[C@@H]1O (some centres unmarked) [Mannose-6-phosphate, mannose-6-phosphate]
% of pre-cell injection foot size ([3]; Day 4, group average n=4): 97.3% | % of pre-cell injection foot size ([3]; Day 6, n=4): 105.8% | % of pre-cell injection foot size ([3]; Day 7, n=4): 102.8% | % of pre-cell injection foot size ([3]; Day 9, n=4): 108.4% | % of pre-cell injection foot size ([3]; Day 11, n=4): 107.6% | % of pre-cell injection foot size ([3]; Day 14, n=4): 117.4% | reduction of DTH swelling as compared with the saline controls [1]: 52.5% | Mean Length Disease ([2]; Table I, 40 mg/rat over 7 days): 0 days | Mean Day Onset ([2]; Table I, 40 mg/rat over 7 days, s.c. pumps from day 3): 0 | Mean Clinical Score ([2]; Table I, 40 mg/rat over 7 days, score 0-5): 0 | No.with EAE/Total ([2]; Table I, 30 x 10⁶ ConA activated EAE effector cells, 40 mg/rat over 7 days, s.c. pumps from day 3): 0/8 | Mean Clinical Score [2, 6]: 1.8 | Mean Day Onset [2, 6]: 5.0 | Mean Length Disease [2, 6]: 3.3 | No.with EAE/Total [2, 6]: 4/4 | Disease Severity (%Control) ([2]; Table II, dose 10 mg over 7 days, listed as Mannose-6-Phosphate): 37.7% | Disease Severity (%Control) ([2]; Table II, dose 10 mg over 7 days, listed as mannose-6-phosphate): 37.7% | Mean Clinical Score [2, 7]: 1.5 | Mean Day Onset [2, 7]: 5.0 | Mean Length Disease [2, 7]: 3.0 | No.with EAE/Total [2, 7]: 4/4 | Disease Severity (%Control) [2, 7]: 28.6% | Mean Clinical Score [2, 8]: 0.3 | Mean Day Onset [2, 8]: 5.0 | Mean Length Disease [2, 8]: 0.7 | No.with EAE/Total [2, 8]: 1/3 | Disease Severity (%Control) [2, 8]: 1.7% | Mean Clinical Score [2, 5]: 0.9 | Mean Day Onset [2, 5]: 6.0 | Mean Length Disease [2, 5]: 1.5 days | No.with EAE/Total [2, 5]: 7/10 | Disease Severity (%Control) ([2]; Table III): 8.9% | Disease Severity (%Control) ([2]; Table III, listed as mannose-6-phosphate): < 10% | inhibition of EAE (result in words) [2]: totally inhibited development of disease | CNS lesions (result in words) ([4]; text summary of Table V): No lesions were detected | No.Lesions ([4]; treated rat 1): 0 | Lesions/section ([4]; treated rat 1): 0 | No.Lesions ([4]; treated rat 2): 0 | Lesions/section ([4]; treated rat 2): 0

Glucose-1-phosphate
Mean Clinical Score [2, 5]: 3.0 | Mean Day Onset [2, 5]: 5.2 | Mean Length Disease [2, 5]: 3.8 days | No.with EAE/Total [2, 5]: 5/5 | Disease Severity (%Control) ([2]; Table III): 75.5% | inhibition of EAE (result in words) [2]: little or no effect on disease progression
